Experimental data: patent EP2292241A1, “A SCUTELLARIN DERIVATIVE, THE PREPARING PROCESS, THE PHARMACEUTICAL COMPOSITION AND THE USE THEREOF” (Kunming Pharmaceutical Corp., priority 2008, dated 2009)

Key:
[1] = tested on: rats with myocardial ischemia caused by coronary artery ligation; assay: myocardial ischemia caused by coronary artery ligation in rats; assay type: in vivo, SD rat; details: for rate of platelet aggregation: ADP-induced, turbidimetry; for range of myocardial infarction: TTC stain, infarcted part as % of ventricle weight; for range of myocardial infarction rate of decrease: compared with the modeling group; for indicators of coagulation APTT / indicators of coagulation FIB / indicators of coagulation PT / indicators of coagulation TT: plasma 24h after ligation
Method: Male SD rats of 330~385g were divided at random into sham group, model group, breviscapine tablet of 40mg/kg group, A1 20mg/kg group and A1 40mg/kg group. Animals of each group were gavage once daily for consecutive 5 days in predetermined dosage, for blank group and model group, the rats were given same volume of 0.5% CNC-Na in 10ml/kg body weight. At 30 minute after the last administration, the animals were anesthetized with 12% chloral hydrate in 350 mg/kg via intraperitoneal injection, then a thoracotomy was performed to render the heart exposed. The left anterior descending coronary artery was found between pulmonary artery cone and left ventricular and was ligated at 2-3mm to the root. Reposited the heart and closed the thoracic cavity. For the sham group, the suture was merely placed but not ligated.
II lead limb ECGs before ligation and at 5min, 30 min, 1h, 2h, 4h and 24h after ligation were recorded, respectively. The change of S-T segment (J point) was measured. After 24h ECG was recorded, blood was collected in duplicate via carotid artery intubation. For one sample, serum was separated and the activity of AST, LDH and CK-MB was determined according to the method of the kit; for another sample, it was treated with 3.8% sodium citrate in 1:9 for the purpose of anticoagulation, centrifuged at 1000rpm for 5 minutes to prepare platelet rich plasma (PRP), and centrifuged at 3500rpm for 10 minutes to prepare platelet poor plasma (PPP). The rate of platelet aggregation induced by ADP-2Na was determined according to turbidimetry, the final concentration of ADP was […]; TT, PT, APTT and FIB was determined according to the method of the kit, respectively. The heart was removed quickly after blood taking, and placed into ice cold saline solution to pump out deposit blood in thoracic cavity. The atria and adipose tissue were removed, and water was adsorbed to dryness. The ventricle was weighed, cut into 5 pieces along the coronal, then incubated and stained for 10 minutes in 1% TTC solution at 37°C in darkness. […] The infracted part was cut and weighed. The percentage of infracted part accounting for the total weight of ventricle was calculated, which was the range of myocardial infarction.

[2] = tested on: rats with MCAO induced focal cerebral ischemia; assay: focal cerebral ischemia induced by MCAO (middle cerebral artery occlusion) in rats; assay type: in vivo, SD rat; details: for range of cerebral infarction: TTC stain, % of bilateral cerebral hemispheres weight; for behavior score: full score 12, higher = more severe; for rate of platelet aggregation: ADP-induced, turbidimetry; for range of cerebral infarction rate of decrease: compared with the modeling group; for indicators of coagulation APTT / indicators of coagulation FIB / indicators of coagulation PT / indicators of coagulation TT: plasma 24h after modeling
Method: Male SD rats, weighing 240~290g, grouping and dosages were as above. Additionally, a positive control group, i.e., nimodipine 50mg/kg group was set up. Animals of each group were gavage once daily for consecutive 5 days in predetermined dosage. At 30 minute after the last administration, the animals were anesthetized with 12% chloral hydrate in 350 mg/kg via intraperitoneal injection. The animals were kept left lateral position and the skin was cut along the middle point between right ear and eye line. Temporalis was separated and cheekbone was sheared. A holl was drilled with a dental drill in front of zygomatic root and MCA was exposed. The MCA was hooked with a needle between the vein and olfactory tract in the brain, then was broke, after bleeding was stopped with a cotton ball, muscle and skin layer was sutured in layer. For the sham group, except for no breaking of MCA, other steps were same.
The animals were scored on neurological functions at 6 hour and 24 hour after modeling, according to behavior such as movement. Such score was used as an indicator of brain dysfunction. […] The standards of grading were as follows;
The full score of the above standards is 12. The higher the score is, the more severe the behavior disorder is.
24 hour after modeling and after neurological scoring, blood was taken via carotid artery intubation in duplicate. For one sample, serum was separated and the activity of AST and LDH was determined according to the method of the kit; for another sample, it was treated with 3.8% sodium citrate in 1:9 for the purpose of anticoagulation, centrifuged at 1000rpm for 5 minutes to prepare platelet rich plasma (PRP), and centrifuged at 3500rpm for 10 minutes to prepare platelet poor plasma (PPP). The rate of platelet aggregation induced by ADP-2Na was determined according to turbidimetry, the final concentration of ADP was […]; TT, PT, APTT and FIB was determined according to the method of the kit, respectively. The brain was removed quickly by decollation after blood taking, and then placed into ice cold saline solution to remove olfactory bulb, cerebellum and brainstem. The brain was weighed after water being absorbed to dryness, and then cut into 5 pieces along the coronal, placed into a 5ml solution containing 4% TTC and 0.1ml K2HPO4 (1mol/L) and incubated for 30 minutes at 37°C and in darkness. During the course every 7 to 8 minutes a turning was made. […] The infracted part was cut and weighed. The percentage of infracted tissue accounting for the total weight of bilateral cerebral hemispheres was calculated by weight area method, which was the range of cerebral infarction.

[3] = toxic or adverse effect at high dosage in animal experiments; assay type: in vivo
[4] = comparative study on solubilities (China Pharmacopeia 2005 terms); assay type: physicochemical; details: terms per China Pharmacopeia 2005
Excerpt: Table 7 Comparison on solubilities of compound A1 of the present invention and scutellarin

[5] = 20mg/kg, serum 24h after ligation
[6] = 40mg/kg, serum 24h after ligation

For COc1ccc(-c2cc(=O)c3c(OC)c(OC)c(OC4O[C@H](C(=O)O)[C@@H](O)[C@H](O)[C@H]4O)cc3o2)cc1 (stereo partly shown) [A1, 4',5,6-trimethoxylscutellarin], the “change of S-T segment after ligation” value ([1]; 20mg/kg gavage once daily 5 days, 5min after ligation) was 0.17±0.11 mv, the “change of S-T segment after ligation” value ([1]; 20mg/kg gavage once daily 5 days, 30min after ligation) was 0.12±0.09 mv and the “change of S-T segment after ligation” value ([1]; 20mg/kg gavage once daily 5 days, 1h after ligation) was 0.11±0.08 mv. For the same compound, the “change of S-T segment after ligation” value ([1]; 20mg/kg gavage once daily 5 days, 2h after ligation) was 0.11±0.07 mv, the “change of S-T segment after ligation” value ([1]; 20mg/kg gavage once daily 5 days, 4h after ligation) was 0.11±0.08 mv and the “change of S-T segment after ligation” value ([1]; 20mg/kg gavage once daily 5 days, 24h after ligation) was 0.07±0.08 mv. The “rate of platelet aggregation” value ([1]; 20mg/kg, 24h after ligation) was 51.20±7.41 %, the “range of myocardial infarction” value ([1]; 20mg/kg) was 3.50±2.68 % and the “range of myocardial infarction rate of decrease” value ([1]; 20mg/kg) was 45.65%. The “indicators of coagulation APTT” value ([1]; 20mg/kg) was 78.17 ± 28.14 s, the “indicators of coagulation FIB” value ([1]; 20mg/kg) was 4.77 ± 1.11 g/L and the “indicators of coagulation PT” value ([1]; 20mg/kg) was 25.90 ± 3.51 s. The “indicators of coagulation TT” value ([1]; 20mg/kg) was 92.41 ± 42.37 s, the “myocardial enzymology AST” value [1, 5] was 0.61±0.26 ku/L and the “myocardial enzymology CK-MB” value [1, 5] was 0.71±0.45 ku/L. The “change of S-T segment after ligation” value ([1]; 40mg/kg gavage once daily 5 days, 5min after ligation) was 0.14±0.12 mv, the “change of S-T segment after ligation” value ([1]; 40mg/kg gavage once daily 5 days, 30min after ligation) was 0.06±0.06 mv and the “change of S-T segment after ligation” value ([1]; 40mg/kg gavage once daily 5 days, 1h after ligation) was 0.05±0.04 mv. The “change of S-T segment after ligation” value ([1]; 40mg/kg gavage once daily 5 days, 2h after ligation) was 0.05±0.04 mv, the “change of S-T segment after ligation” value ([1]; 40mg/kg gavage once daily 5 days, 4h after ligation) was 0.06±0.05 mv and the “change of S-T segment after ligation” value ([1]; 40mg/kg gavage once daily 5 days, 24h after ligation) was 0.02±0.03 mv. For the same compound, the “rate of platelet aggregation” value ([1]; 40mg/kg, 24h after ligation) was 48.22±5.55 %, the “range of myocardial infarction” value ([1]; 40mg/kg) was 2.52±2.16 % and the “range of myocardial infarction rate of decrease” value ([1]; 40mg/kg) was 60.87%. The “indicators of coagulation APTT” value ([1]; 40mg/kg) was 75.96 ± 35.87 s, the “indicators of coagulation FIB” value ([1]; 40mg/kg) was 3.95 ± 0.84 g/L and the “indicators of coagulation PT” value ([1]; 40mg/kg) was 25.75 ± 5.26 s. The “indicators of coagulation TT” value ([1]; 40mg/kg) was 93.04 ± 35.64 s, the “myocardial enzymology AST” value [1, 6] was 0.61±0.20 ku/L and the “myocardial enzymology CK-MB” value [1, 6] was 0.80±0.68 ku/L. For the same compound, the “myocardial enzymology LDH” value [1, 6] was 0.61±0.24 ku/L, the “body weight 6h after surgery” value ([2]; 20mg/kg) was 258.3 ± 11.9 g and the “body weight 24h after surgery” value ([2]; 20mg/kg) was 250.0 ± 15.1 g. The “body weight prior to surgery” value ([2]; 20mg/kg) was 268.8 ± 12.4 g, the “range of cerebral infarction” value ([2]; 20mg/kg gavage once daily 5 days) was 2.36±1.81 % and the behavior score ([2]; 20mg/kg, 6h after modeling) was 6.42±1.62. The “serum enzymes AST” value ([2]; 20mg/kg, 24h after modeling) was 171.2±71.6 u/L, the “serum enzymes LDH” value ([2]; 20mg/kg, 24h after modeling) was 571.1±287.5 u/L and the behavior score ([2]; 20mg/kg, 24h after modeling) was 4.92±1.31. The “rate of platelet aggregation” value ([2]; 20mg/kg, 24h after modeling) was 50.52±4.07 %, the “range of cerebral infarction rate of decrease” value ([2]; 20mg/kg) was 59.10% and the “indicators of coagulation APTT” value ([2]; 20mg/kg) was 62.48 ± 29.08 s. For the same compound, the “indicators of coagulation FIB” value ([2]; 20mg/kg) was 3.38 ± 1.07 g/L, the “indicators of coagulation PT” value ([2]; 20mg/kg) was 25.56 ± 5.30 s and the “indicators of coagulation TT” value ([2]; 20mg/kg) was 95.55 ± 24.80 s. The “body weight 6h after surgery” value ([2]; 40mg/kg) was 253.8 ± 12.1 g, the “body weight 24h after surgery” value ([2]; 40mg/kg) was 244.2 ± 12.2 g and the “body weight prior to surgery” value ([2]; 40mg/kg) was 265.8 ± 12.4 g. The “range of cerebral infarction” value ([2]; 40mg/kg gavage once daily 5 days) was 2.04±1.43 %, the behavior score ([2]; 40mg/kg, 6h after modeling) was 5.75±1.42 and the “serum enzymes AST” value ([2]; 40mg/kg, 24h after modeling) was 152.9±33.0 u/L. For the same compound, the “serum enzymes LDH” value ([2]; 40mg/kg, 24h after modeling) was 472.0±231.9 u/L, the behavior score ([2]; 40mg/kg, 24h after modeling) was 4.25±1.60 and the “rate of platelet aggregation” value ([2]; 40mg/kg, 24h after modeling) was 52.38±5.24 %. For the same compound, the “range of cerebral infarction rate of decrease” value ([2]; 40mg/kg) was 64.64%, the “indicators of coagulation APTT” value ([2]; 40mg/kg) was 75.15 ± 27.41 s and the “indicators of coagulation FIB” value ([2]; 40mg/kg) was 3.59 ± 0.76 g/L. For the same compound, the “indicators of coagulation PT” value ([2]; 40mg/kg) was 23.43 ± 8.66 s, the “indicators of coagulation TT” value ([2]; 40mg/kg) was 62.04 ± 40.80 s and the “toxic or adverse effect” value [3] was “No toxic or adverse effect was found”.

In the case of COCCOC(=O)C1=C(C)NC(C)=C(C(=O)OC(C)C)C1c1cccc([N+](=O)[O-])c1 (stereo not shown) [nimodipine, reference compound], the “body weight 6h after surgery” value ([2]; 50mg/kg) is reported as 257.1 ± 11.4 g, the “body weight 24h after surgery” value ([2]; 50mg/kg) is reported as 249.6 ± 10.5 g and the “body weight prior to surgery” value ([2]; 50mg/kg) is reported as 265.8 ± 12.9 g. For the same compound, the “range of cerebral infarction” value ([2]; 50mg/kg gavage once daily 5 days) was 2.27±2.56 %, the behavior score ([2]; 50mg/kg, 6h after modeling) was 6.50±1.68 and the “serum enzymes AST” value ([2]; 50mg/kg, 24h after modeling) was 198.6±118.2 u/L. For the same compound, the “serum enzymes LDH” value ([2]; 50mg/kg, 24h after modeling) was 536.7±262.8 u/L, the behavior score ([2]; 50mg/kg, 24h after modeling) was 4.83±1.40 and the “rate of platelet aggregation” value ([2]; 50mg/kg, 24h after modeling) was 54.15±7.76%. For the same compound, the “range of cerebral infarction rate of decrease” value ([2]; 50mg/kg) was 60.66%, the “indicators of coagulation APTT” value ([2]; 50mg/kg) was 61.02 ± 44.79 s and the “indicators of coagulation FIB” value ([2]; 50mg/kg) was 3.52 ± 1.14 g/L. The “indicators of coagulation PT” value ([2]; 50mg/kg) was 23.38 ± 8.23 s and the “indicators of coagulation TT” value ([2]; 50mg/kg) was 88.55 ± 32.24 s.

With O=C(O)[C@H]1O[C@@H](Oc2cc3oc(-c4ccc(O)cc4)cc(=O)c3c(O)c2O)[C@H](O)[C@@H](O)[C@@H]1O [scutellarin] the solubility ([4]; 0.01N NaOH) was “soluble”, the solubility ([4]; 95%EtOH) was “slightly soluble” and the solubility ([4]; H2O) was “very slightly soluble”. The solubility ([4]; MeOH) was “slightly soluble” and the solubility ([4]; n-BuOH) was “slightly soluble”.
